# Results published in patent US20250032478A1 (SURGE Therapeutics, Inc., priority 2021, published 2025).
# Tests used:
# [1] = test system: 4T1-Luc2 breast cancer cells; assay: Survival of tumor resection mice, composition placed at tumor resection site; assay type: in vivo, female BALB/c mice
# Experimental: 4T1-Luc2 breast cancer cells were cultured in RPMI-1640 medium, with 10% fetal bovine serum (FBS) and 1% penicillin/streptomycin. All cells were cultured in a 37° C. in a humidified incubator, with 5% Co2.
# All animal experiments were performed using 6-8 weeks old female BALB/c mice (Jackson Laboratories, #000651). For animal survival studies, 10^5 4T1-Luc2 cells were inoculated orthotopically into the fourth mammary fat pad of a mouse. Mice were size-matched and randomly assigned to treatment groups, and surgery was performed on day 10 or day 12 after tumor inoculation. Tumor sizes were measured with calipers. For primary tumor resection, mice were anesthetized with 2% isoflurane, the tumor was resected, and a hydrogel was placed in the surgical site at the time of surgery.
# In some embodiments, female BALB/cJs mice were inoculated orthotopically with 100,000 breast cancer cells (e.g., 4T1-Luc2 cells).
# [2] = Solubility in sodium phosphate buffered saline comprising 10 wt % poloxamer 407; assay type: physicochemical
# [3] = Hygroscopicity of solid form; assay type: physicochemical
# [4] = Visual solubility assessment of Resiquimod Form I; assay type: physicochemical; details: room temperature
# [5] = in polymer combination of 8-12.5% or 6-11% (w/w) poloxamer (e.g. 10% P407) and 1-5% (w/w) HA (e.g. 4% HA 119 KDa), at tumor resection site, FIG. 29
compound,measurement,setting,value
"CCOCc1nc2c(N)nc3ccccc3c2n1CC(C)(C)O [resiquimod, Resiquimod]",efficacy vs chemically-crosslinked hyaluronic acid hydrogel (HyStem) incorporated with resiquimod,"[1]; in crosslinked hydrogel of 8-13.5% (w/w) Poloxamer (e.g. 10% P407) and 0.6-1.5% (w/w) HA (e.g. 1% HA 1.5 MDa), FIG. 27A-E",comparable to or better than
same,survival time longer than control group receiving the hydrogel without resiquimod,"[1]; in crosslinked hydrogel of 8-13.5% or 6-11% (w/w) Poloxamer (e.g. 10% P407) and 0.6-1.5% (w/w) HA (e.g. 1% HA 1.5 MDa), at tumor resection site, FIG. 27A-E",at least 50%
same,survival rate vs control group receiving the hydrogel without resiquimod,"[1]; in crosslinked hydrogel of 8-13.5% or 6-11% (w/w) Poloxamer and 0.6-1.5% (w/w) HA, at tumor resection site, FIG. 27A-E",much higher survival rate
same,survival time vs control group receiving polymer combination without resiquimod,"[1]; in polymer combination of 8-12.5% or 6-11% (w/w) poloxamer (e.g. 8%, 10% or 12.5% P407) and 1.2-2.75% (w/w) HA (e.g. 1.625% or 2.25% HA 730 KDa), at tumor resection site, FIG. 28A-D",survived over a longer period of time
same,survival rate vs control group receiving polymer combination without resiquimod,[1]; [5],higher survival rate
same,survival time vs control group receiving polymer combination without resiquimod,[1]; [5],survived over a longer period of time
same,survival rate vs control group receiving polymer combination without resiquimod,"[1]; in polymer combination of 8-12.5% or 6-11% (w/w) poloxamer and 1.2-2.75% (w/w) HA 730 KDa, at tumor resection site, FIG. 28A-D",higher survival rate
"CCOCc1nc2c(N)nc3ccccc3c2n1CC(C)(C)O [Resiquimod Form I, Resiquimod]",solubility,[2],increased solubility
same,hygroscopicity,[3],notably low hygroscopicity
same,Observation (visual solubility),"[4]; 1-Butanol, 0.5 mL added to 10 mg",Light hazy solution
same,Observation (visual solubility),"[4]; 1-Propanol, 0.5 mL added to 10 mg",Light hazy solution
same,Observation (visual solubility),"[4]; 2-Butanol, 0.5 mL added to 10 mg",Light hazy solution
same,Observation (visual solubility),"[4]; 2-Ethoxyethanol, 0.25-0.5 mL added to 10 mg",Light hazy solution throughout
same,Observation (visual solubility),"[4]; 2-Methoxyethanol, 0.25-0.5 mL added to 10 mg",Light hazy solution throughout
same,Observation (visual solubility),"[4]; 2-Methyl THF, 0.25 mL added to 10 mg",Clear solution
same,Observation (visual solubility),"[4]; 2-Propanol, 0.5 mL added to 10 mg",Suspension
same,Observation (visual solubility),"[4]; Acetone, 0.5 mL added to 10 mg",Suspension
same,Observation (visual solubility),"[4]; Acetonitrile, 0.5 mL added to 10 mg",Suspension
same,Observation (visual solubility),"[4]; Amyl alcohol, 0.5 mL added to 10 mg",Light hazy solution
same,Observation (visual solubility),"[4]; Anisole, 0.5 mL added to 10 mg",Suspension
same,Observation (visual solubility),"[4]; CPME, 0.5 mL added to 10 mg",Suspension
same,Observation (visual solubility),"[4]; Chloroform, 0.5 mL added to 10 mg",Light hazy solution
same,Observation (visual solubility),"[4]; Cyclohexane, 0.5 mL added to 10 mg",Suspension
same,Observation (visual solubility),"[4]; DMP, 0.5 mL added to 10 mg",Suspension
same,Observation (visual solubility),"[4]; Dichloromethane, 0.5 mL added to 10 mg",Light hazy solution
same,Observation (visual solubility),"[4]; Diethyl ether, 0.5 mL added to 10 mg",Suspension
same,Observation (visual solubility),"[4]; Ethanol, 0.25-0.5 mL added to 10 mg",Light hazy solution throughout
same,Observation (visual solubility),"[4]; Ethyl acetate, 0.5 mL added to 10 mg",Suspension
same,Observation (visual solubility),"[4]; Heptane, 0.5 mL added to 10 mg",Suspension
same,Observation (visual solubility),"[4]; Hexane, 0.5 mL added to 10 mg",Suspension
same,Observation (visual solubility),"[4]; Isobutanol, 0.5 mL added to 10 mg",Light hazy solution
same,Observation (visual solubility),"[4]; Isobutyl acetate, 0.5 mL added to 10 mg",Suspension
same,Observation (visual solubility),"[4]; Isopropyl acetate, 0.5 mL added to 10 mg",Suspension
same,Observation (visual solubility),"[4]; MEK, 0.5 mL added to 10 mg",Suspension
same,Observation (visual solubility),"[4]; MIBK, 0.5 mL added to 10 mg",Suspension
same,Observation (visual solubility),"[4]; MIPK, 0.5 mL added to 10 mg",Suspension
same,Observation (visual solubility),"[4]; MTBE, 0.5 mL added to 10 mg",Suspension
same,Observation (visual solubility),"[4]; Methanol, 0.25-0.5 mL added to 10 mg",Light hazy solution throughout
same,Observation (visual solubility),"[4]; Methyl acetate, 0.5 mL added to 10 mg",Suspension
same,Observation (visual solubility),"[4]; Nitromethane, 0.5 mL added to 10 mg",Suspension
same,Observation (visual solubility),"[4]; Octane, 0.5 mL added to 10 mg",Suspension
same,Observation (visual solubility),"[4]; Pentane, 0.5 mL added to 10 mg",Suspension
same,Observation (visual solubility),"[4]; Petroleum Ether, 0.5 mL added to 10 mg",Suspension
same,Observation (visual solubility),"[4]; Propylene glycol, 0.25-0.5 mL added to 10 mg",Light hazy solution throughout
same,Observation (visual solubility),"[4]; THF, 0.25-0.5 mL added to 10 mg",Light hazy solution
same,Observation (visual solubility),"[4]; Toluene, 0.5 mL added to 10 mg",Suspension
same,Observation (visual solubility),"[4]; Water, 0.5 mL added to 10 mg",Suspension
same,Observation (visual solubility),"[4]; Xylene, 0.5 mL added to 10 mg",Suspension
same,Observation (visual solubility),"[4]; p-Dioxane, 0.5 mL added to 10 mg",Light hazy solution
